In patent US20240226117A1, “TREATMENT OF CONGENITAL ADRENAL HYPOPLASIA” (ReveraGen BioPharma, Inc., priority 2021, published 2024):

Assays:
Assay type in all cases: in vivo, human
DMD participants [1] = experiment: VBP15-003/VBP15-LTE motor outcomes over 18 months (TTSTAND, TTRW, TTCLIMB, 6MWT, NSAA); details: ANCOVA; for TTCLIMB velocity, LS mean difference (SE) / TTSTAND velocity, LS mean difference (SE): vamorolone 2.0 or 6.0 mg/kg/day 18 months versus corticosteroid-naïve DNHS
Description: Three consecutive clinical trials of vamorolone treatment of DMD were conducted by CINRG (VBP15-002 [NCT02760264]: VBP15-003 [NCT02760277]: VBP15-LTE [NCT03038399]). A total of 48 participants (ages 4 to <7 years) were initially enrolled into VBP15-002, with trial participants completing month 12 of the 24-month VBP15-LTE study.
The consecutive vamorolone trials (VBP15-002, VBP15-003, VBP15-LTE) were open-label with no placebo comparator. Corticosteroid-naïve and corticosteroid-treated DMD participant comparators were group-matched participants from the CINRG DNHS (NCT00468832). The CINRG DNHS was an observational, prospective case-control study of 551 participants (440 with DMD, 111 healthy peers). For group matching between vamorolone-treated participants and CINRG DNHS participants, prespecified criteria were defined for matching within the interim statistical analysis plan (iSAP). Age-matched CINRG DNHS participants included those continuously corticosteroid-naïve over an 18-month period (n=19) or continuously corticosteroid-treated over an 18-month period (n=68). For the 68 corticosteroid-treated participants, as this was an observational cohort, corticosteroid doses and regimens varied based on clinician discretion. Although all 68 participants were treated for 18 months continuously, the age at initiation of corticosteroids varied. Thus, the total duration of corticosteroid treatment was longer than 18 months for most participants.
Assessments of efficacy were motor outcomes (primary outcome: time to stand from supine [TTSTAND]: secondary outcomes: time to run/walk 10 meters [TTRW], time to climb four stairs [TTCLIMB], distance covered in 6-minute walk test [6MWT], and the North Star Ambulatory Assessment [NSAA]). 6MWT and NSAA were not assessed in most CINRG DNHS participants and were not compared to vamorolone-treated participants. According to standard operating procedures, clinical evaluators were trained to harmonize the CINRG vamorolone, CINRG DNHS, and CINRG prednisone studies. Reliability of these outcomes (percent coefficient of variation) has been reported for the VBP15-002/VBP15-003 studies. Assessments were done at baseline (VBP15-002 entry), 24 weeks (VBP15-003 last visit), and 18 months (VBP15-LTE midpoint assessment at 12 months).
Only participants completing VBP15-002 and VBP15-003 were eligible to enroll in VBP15-LTE. Participants received vamorolone at 1 of 4 dose levels (0.25, 0.75, 2.0, or 6.0 mg/kg/day) and at the same dose level in both the 4-week VBP15-002 trial and the 24-week VBP15-003 trial. If participants, their families, and their physicians wished to continue vamorolone treatment upon exiting the VBP15-003 trial, they were offered participation in the 24-month long-term extension (VBP15-LTE). The last visit of the VBP15-003 trial was commensurate with the first visit of the VBP15-LTE trial. In all studies, study medication was provided as 4% flavored liquid suspension and was dosed according to body weight and given once daily in the morning with food.
Vamorolone-treated participants were initially enrolled into VBP15-002 and VBP15-003 in 4 dose groups (0.25, 0.75, 2.0, and 6.0 mg/kg/day: groups A-D). Upon entering VBP15-LTE, vamorolone group A participants had 2 or 3 sequential dose escalations and were treated with 2.0 or 6.0 mg/kg/day for the last 3-9 months of the 18 months: group B participants had 1 or 2 dose escalations and were treated with 2.0 or 6.0 mg/kg/day for the last 9-11 months. Groups C and D were treated for 18 months at 2.0 or 6.0 mg/kg/day (S1 Fig).
The current study is the first to evaluate the longer-term tolerability, efficacy, and safety of vamorolone in DMD. […] Given the variable timing of dose escalations, it was prespecified that initial analyses of drug-related efficacy and safety would be limited to those participants who had 18 months of treatment with 2.0 mg/kg/day vamorolone or more (dose group C+dose group D: n=23). […]

DMD participants [2] = experiment: Morning serum cortisol (adrenal suppression); details: 24-week trial
Description: Two tests for adrenal insufficiency were used: morning cortisol (before drug) and ACTH stimulation tests. Adrenal suppression was measured via morning serum cortisol levels at Baseline, 12-weeks, and 24-weeks. The ACTH stimulation test was measured at Baseline and 24-weeks. Morning cortisol was measured in the clinic before daily drug administration. Morning cortisol levels were similar at Baseline (˜200 nmol/L) in all groups and remained stable over the 24-week trial in the Placebo Group.

ambulant boys with DMD [3] = experiment: VISION-DMD Phase 2b (VBP15-004) motor efficacy, 24-week double-blind period
DMD participants [4] = experiment: Skeletal maturation by wrist x-ray, VBP15-LTE Month 24; details: for Bone Age difference to Chronologic Age, mean (SD): wrist x-ray at LTE Month 24, n = 39
From the text: In certain embodiments, the difference between chronological age of the human patient and the bone age of the human patient is reduced. A child's bone age (also called the skeletal age) is assigned by determining which of the standard X-ray images in the atlas most closely match the appearance of the child's bones on the X-ray. A difference between a child's bone age and chronological age might indicate a growth problem. The larger the difference between the bone age of a human patient and their chronological age, the greater the growth problem or disease symptom.
In addition, 39/41 LTE participants had wrist x-ray at Month 24; the mean bone age to chronologic age difference was −1.1 (p<0.001, CI −1.5, −0.7), indicating possible skeletal maturation delay (Table 7).

ambulant boys with DMD [5] = experiment: VBP15-004 bone turnover biomarkers; details: for Osteocalcin, difference vs. prednisone / Procollagen 1 N-Terminal Propeptide (P1NP), difference vs. prednisone / Type I Collagen C-Telopeptides (CTX), difference vs. prednisone: Week 24, p < 0.001
[6] = vamorolone 18 months versus corticosteroid-naïve participants

With `C[C@@H]1C[C@H]2[C@@H]3CCC4=CC(=O)C=C[C@]4(C)C3=CC[C@]2(C)[C@@]1(O)C(=O)CO` [Vamorolone, 17α,21-dihydroxy-16α-methylpregna-1,4,9(11)-triene-3,20-dione] as the compound, how does the “TTCLIMB velocity, LS mean difference (SE)” value (DMD participants [1]) read?
Its value is 0.059 (0.026) event/second.

What about the “TTSTAND velocity, LS mean difference (SE)” value (DMD participants [1]) of the same compound?
Its value is 0.042 (0.024) event/second.

What about the “TTCLIMB velocity, LS mean difference (SE)” value (DMD participants [1]; listed as vamorolone) of the same compound?
The value was 0.059 event/second.

What about the “TTSTAND velocity, LS mean difference (SE)” value (DMD participants [1]; listed as vamorolone) of the same compound?
The value was 0.042 event/second.

What about the “TTCLIMB in seconds units, LS mean difference” value (DMD participants [1]; [6]) of the same compound?
The value was -0.34 s.

And the “TTRW in seconds units, LS mean difference” value (DMD participants [1]; [6])?
Its value is -0.84 s.

What about the “adrenal suppression by morning cortisol, compared with prednisone” value (DMD participants [2]; vamorolone 2.0 mg/kg/day, p=0.002) of the same compound?
The value was “less adrenal suppression than prednisone”.

And the “adrenal suppression by morning cortisol, compared with prednisone” value (DMD participants [2]; vamorolone 6.0 mg/kg/day)?
The value was “not significantly different from prednisone”.

What about the “TTSTAND after 24 weeks” value (ambulant boys with DMD [3]; vamorolone 6 mg/kg/day group, from 6.0 seconds at baseline) of the same compound?
Its value is 4.6 s.

And the “TTSTAND velocity, 6MWT, TTRW endpoints compared with prednisone” value (ambulant boys with DMD [3]; vamorolone 6 mg/kg/day versus prednisone 0.75 mg/kg/day, 24 weeks)?
The value was “no statistically significant differences”.

What about the “TTSTAND velocity, treatment difference versus placebo in change from baseline” value (ambulant boys with DMD [3]; vamorolone 6 mg/kg/day, 24 weeks, p=0.002) of the same compound?
The value was 0.06 rises/second.

And the “Bone Age difference to Chronologic Age, mean (SD)” value (DMD participants [4])?
Its value is −1.1 (1.2), yr.

What about the “Bone Age difference to Chronologic Age, mean (SD)” value (DMD participants [4]; listed as vamorolone) of the same compound?
Its value is −1.1 yr.

And the “LTE Month 24 Bone Age, mean (SD)” value (DMD participants [4]; wrist x-ray, n = 39, chronologic age 8.0 (1.0) yr)?
Its value is 6.8 (1.4), n = 39 yr.

What about the “Osteocalcin, mean (SEM) change at Week 24” value (ambulant boys with DMD [5]; Vamorolone 2.0 mg, N = 17) of the same compound?
The value was 8.3 (3.1) ng/ml.

And the “Procollagen 1 N-Terminal Propeptide (P1NP), mean (SEM) change at Week 24” value (ambulant boys with DMD [5]; Vamorolone 2.0 mg, N = 17)?
Its value is 48 (27) ng/mL.

And the “Type I Collagen C-Telopeptides (CTX), mean (SEM) change at Week 24” value (ambulant boys with DMD [5]; Vamorolone 2.0 mg, N = 17)?
Its value is 177 (52) pg/mL.

What about the “Osteocalcin, difference vs. prednisone” value (ambulant boys with DMD [5]; Vamorolone 2.0 mg) of the same compound?
Its value is 23.5 ng/mL.

What about the “Procollagen 1 N-Terminal Propeptide (P1NP), difference vs. prednisone” value (ambulant boys with DMD [5]; Vamorolone 2.0 mg) of the same compound?
The value was 182 ng/mL.

And the “Type I Collagen C-Telopeptides (CTX), difference vs. prednisone” value (ambulant boys with DMD [5]; Vamorolone 2.0 mg)?
The value was 477 pg/mL.

What about the “Osteocalcin, difference vs. prednisone” value (ambulant boys with DMD [5]; Vamorolone 6.0 mg) of the same compound?
The value was 16.9 ng/mL.

And the “Procollagen 1 N-Terminal Propeptide (P1NP), difference vs. prednisone” value (ambulant boys with DMD [5]; Vamorolone 6.0 mg)?
Its value is 124 ng/mL.

And the “Type I Collagen C-Telopeptides (CTX), difference vs. prednisone” value (ambulant boys with DMD [5]; Vamorolone 6.0 mg)?
Its value is 390 pg/mL.
